In patent publication US11021688B2, “Derivation of human skin organoids from pluripotent stem cells” (INDIANA UNIVERSITY RESEARCH AND TECHNOLOGY CORPORATION, priority 2015, dated 2021):

What was measured:
Assay type in all cases: cell-based, human
[1] = system: hPSC-derived skin organoids; test: Pigmentation of hair follicles in skin organoids; details: pre-treated during days 8-12
Procedure: After 4 days of incubation, 25 μl of CDM containing a 250 ng ml^−1 FGF-2 (50 ng/ml final concentration) and 1 μM LDN-193189 (200 nM final concentration) was added to the pre-existing 100 μl of media in each well. After an additional 4 days (8 days total), 250 of CDM was added to the media. For some experiments, CDM containing 18 μM CHIR99021 (3 μM final concentration; Stemgent) was added to the pre-existing 125 μl of media in each well. During day 12 transfer to OMM, aggregates were resuspended in ice cold undiluted GFR Matrigel and placed in approximately 25 μl droplets on the surface of a 100 mm bacterial culture plate. After at least 30 minutes of incubation at 37° C., the droplets were bathed in 10 ml of OMM. To avoid Matrigel droplet induction, the aggregates can be washed and plated individually into each well of a 24-well low cell adhesion plate in OMM containing 1% GFR Matrigel. After 18 days of differentiation, the CHIR was removed from the medium by washing and the droplet aggregates were moved to a floating culture. Droplets were carefully dislodged using a wide-mouth 1000P tip and transferred to 75 ml of fresh OMM in a 125 ml disposable spinner flask (Corning). Spinner flasks were maintained on an in-incubator stir plate (Thermo Scientific) at 65 RPM for up to 180 days of differentiation. […]

hPSC-derived aggregates [2] = test: Structures formed under treatment plans during days 0-12 of differentiation; details: treatment after initial 10 μM SB+4 ng/ml FGF; with or without insulin
Text: A-b, Treatment conditions during days 0-12 were: no treatment (NT), LDN (from d4-d12), LDN/FGF (from d4-d12), and LDN/FGF (from d4-d12)+CHIR (from d8-d12). From days 22-55, skin organoids formed in LDN/FGF and LDN/FGF/CHIR conditions with or without insulin. […] We detached the droplet embedded aggregates from the plate and placed them in a rotating or shaking floating culture in OMM for up to 60 days. By 30-55 days of culture, skin organoids consisted of KRT5^+ basal keratinocytes and PDGFRa^+ dermal fibroblasts (FIGS. 7A-7C). The skin organoids developed as a cyst with an inner layer of epidermis and an outer layer of dermis. We next wondered what mechanism controlled the induction of skin organoids and tested various treatment plans with or without insulin in the CDM during days 0-12 of differentiation (FIGS. 8A-8B). After 12 days, the aggregates were transferred to Matrigel in OMM as previously mentioned. […] Intriguingly, without insulin, the skin organoids were 2.5-3.5 times larger on average than insulin treated aggregates. We chose to continue our analysis with FGF/LDN and FGF/LDN/CHIR (without insulin) treated aggregates.

[3] = system: WA25 hESC and mND2-0 hiPSC aggregates; test: Keratinocyte (non-neural ectoderm) induction in hPSC aggregates in 3D culture; details: n=40 aggregates per cell line across 4 experiments
Procedure: We sought to develop a novel human non-neural induction protocol that could generate skin organoids. Human pluripotent stem cells of the WA25 cell line were dissociated in Essential 8 (E8) culture medium into single cells. Approximately 5000 cells were plated in each well of a 96-well V-bottom plate. Following 24 hours in culture, pluripotent cell aggregates that formed were transferred to 96-well U-bottom plates and cultured in a differentiation medium in the presence of Matrigel. This was considered “day 0” of differentiation (see FIG. 1). In comparing our mouse pluripotent stem cell (mPSC) system with our human (hPSC) system, it was observed that hPSCs appear to produce different endogenous signaling molecules that must be added as exogenous factors for mPSC cultures. Assays were performed to identify key factors dictating non-neural ectoderm induction in hPSC aggregates. It was determined that treating hPSC aggregates with the TGF signaling inhibitor SB-431542 in a chemically-defined medium with or without a low concentration of BMP4 (<5 ng/ml) (CDM; Table 1) produces a surface epithelium of TFAP2^+ (AP2) non-neural ectoderm cells (FIGS. 3A-3F). After a 10-12 day incubation, the aggregates were transferred to a floating culture on low-cell attachment plates in organoid maturation medium (OMM; see Table 2). […]

[4] = system: hPSC-derived skin organoids; test: Skin organoid size with or without insulin in the differentiation medium; details: LDN/FGF and LDN/FGF/CHIR conditions; n=6 organoids/condition
Text: A-b, Treatment conditions during days 0-12 were: no treatment (NT), LDN (from d4-d12), LDN/FGF (from d4-d12), and LDN/FGF (from d4-d12)+CHIR (from d8-d12). From days 22-55, skin organoids formed in LDN/FGF and LDN/FGF/CHIR conditions with or without insulin.
We detached the droplet embedded aggregates from the plate and placed them in a rotating or shaking floating culture in OMM for up to 60 days. By 30-55 days of culture, skin organoids consisted of KRT5^+ basal keratinocytes and PDGFRa^+ dermal fibroblasts (FIGS. 7A-7C). The skin organoids developed as a cyst with an inner layer of epidermis and an outer layer of dermis. We next wondered what mechanism controlled the induction of skin organoids and tested various treatment plans with or without insulin in the CDM during days 0-12 of differentiation (FIGS. 8A-8B). After 12 days, the aggregates were transferred to Matrigel in OMM as previously mentioned. […] Intriguingly, without insulin, the skin organoids were 2.5-3.5 times larger on average than insulin treated aggregates. We chose to continue our analysis with FGF/LDN and FGF/LDN/CHIR (without insulin) treated aggregates.

hPSC-derived aggregates [5] = test: Mesoderm induction (Brachyury immunohistochemistry) in hPSC aggregates
Procedure: Representative Brachyury (BRA) immunohistochemistry in day 4 aggregates treated with 10 ng/ml BMP4 (a), 10 μM SB (b), and 10 μM SB+2.5 ng/ml BMP4 (c) on day 0. Scale bars, 50 μm.
With human PSCs, TGFβ inhibition and endogenous BMP signaling promotes formation of TFAP2+ ECAD+ surface ectoderm by 3-6 days of differentiation.

In the case of Cc1c[nH]c(-c2cnc(NCCNc3ccc(C#N)cn3)nc2-c2ccc(Cl)cc2Cl)n1 [CHIR99021], the “organoids producing pigmented hair follicles” value [1] is reported as 75%.

For c1ccc2c(-c3cnn4cc(-c5ccc(N6CCNCC6)cc5)cnc34)ccnc2c1 [LDN, LDN-193189], the “structures formed by aggregates” value (hPSC-derived aggregates [2]) was “primarily formed keratinocyte cyts”.

NC(=O)c1ccc(-c2nc(-c3ccc4c(c3)OCO4)c(-c3ccccn3)[nH]2)cc1 [SB, SB-431542] was tested, and the “aggregates generating a 3D spheroid comprising TFAP2+KRT5+ keratinocytes” value [3] was 100%.

With “insulin: insulin component of the chemically-defined differentiation medium (CDM)” the “size (long-axis diameter) of skin organoids in insulin-free conditions relative to conditions with insulin” value [4] was 2.5-3.5 times.

B1: bone morphogenetic protein-4 (protein, UniProt P12644 293-408, looked up)
Bone morphogenetic protein 4: SPKHHSQRARKKNKNCRRHSLYVDFSDVGWNDWIVAPPGYQAFYCHGDCPFPLADHLNSTNHAIVQTLVNSVNSSIPKACCVPTELSAISMLYLDEYDKVVLKNYQEMVVEGCGCR
notes: agonist of BMP signaling
B1 was tested, and the “induction of mesodermal (BRA+) cells” value (hPSC-derived aggregates [5]; BMP treatment alone) was “mesoderm is induced” and the “induction of mesodermal (Brachyury+) cells” value (hPSC-derived aggregates [5]; low concentration of BMP-4 during non-neural ectoderm induction) was “not induced”.
